Experimental data reported in ChEMBL document CHEMBL1201861, “Genomics of Drug Sensitity in Cancer screening data, Wellcome Trust Sanger Institute”.

How the values were obtained:
Experiment in all cases: cells
[1] = test system: CW-2; format: functional, cell-based, Homo sapiens; details: Homo sapiens, CW-2;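 note: growth inhibition of CW-2 cells, read out by a cell viability assay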
Description: SANGER: Inhibition of human CW-2 cell growth in a cell viability assay.

[2] = test system: Calu-6; format: functional, cell-based, Homo sapiens; details: Homo sapiens, Calu-6;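 note: growth of human Calu-6 cells, read out by a cell viability assay, IC50 marking inhibition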
Description: SANGER: Inhibition of human Calu-6 cell growth in a cell viability assay.

[3] = test system: D-502MG; format: functional, cell-based, Homo sapiens; details: Homo sapiens, D-502MG
Description: SANGER: Inhibition of human D-502MG cell growth in a cell viability assay.

[4] = test system: DSH1; format: functional, cell-based; details: Homo sapiens;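 note: growth inhibition of human DSH1 cells, measured with a cell viability readout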
Description: SANGER: Inhibition of human DSH1 cell growth in a cell viability assay.

[5] = test system: EKVX; format: functional, cell-based, Homo sapiens; details: Homo sapiens, EKVX;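 note: growth inhibition of human EKVX cells, read out with a cell viability assay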
Description: SANGER: Inhibition of human EKVX cell growth in a cell viability assay.

[6] = test system: EW-1; format: functional, cell-based, Homo sapiens; details: Homo sapiens, EW-1;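 note: growth inhibition of the human EW-1 cell line, read out by a cell viability assay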
Description: SANGER: Inhibition of human EW-1 cell growth in a cell viability assay.

[7] = test system: GCIY; format: functional, cell-based, Homo sapiens; details: Homo sapiens, GCIY;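 note: growth inhibition of the human GCIY cell line, read out by a cell viability assay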
Description: SANGER: Inhibition of human GCIY cell growth in a cell viability assay.

[8] = test system: GOTO; format: functional, cell-based, Homo sapiens; details: Homo sapiens, GOTO;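 note: growth inhibition of GOTO cells, read out by a cell viability assay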
Description: SANGER: Inhibition of human GOTO cell growth in a cell viability assay.

[9] = test system: GT3TKB; format: functional, cell-based, Homo sapiens; details: Homo sapiens, GT3TKB;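 note: growth inhibition of the cell line, read out with a cell viability assay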
Description: SANGER: Inhibition of human GT3TKB cell growth in a cell viability assay.

[10] = test system: HCE-4; format: functional, cell-based; details: Homo sapiens;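 note: cell viability assay measuring inhibition of growth in the human HCE-4 cell line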
Description: SANGER: Inhibition of human HCE-4 cell growth in a cell viability assay.

[11] = test system: HD-MY-Z; format: functional, cell-based, Homo sapiens; details: Homo sapiens, HD-MY-Z;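 note: growth inhibition of HD-MY-Z cells, read out with a cell viability assay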
Description: SANGER: Inhibition of human HD-MY-Z cell growth in a cell viability assay.

[12] = test system: HL-60; format: functional, cell-based, Homo sapiens; details: Homo sapiens, HL-60;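 note: growth inhibition of human HL-60 cells, read out with a cell viability assay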
Description: SANGER: Inhibition of human HL-60 cell growth in a cell viability assay.

[13] = test system: HOP-62; format: functional, cell-based, Homo sapiens; details: Homo sapiens, HOP-62;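 note: cell growth inhibition determined with a viability assay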
Description: SANGER: Inhibition of human HOP-62 cell growth in a cell viability assay.

[14] = test system: HT-144; format: functional, cell-based, Homo sapiens; details: Homo sapiens, HT-144
Description: SANGER: Inhibition of human HT-144 cell growth in a cell viability assay.

[15] = test system: KARPAS-299; format: functional, cell-based, Homo sapiens; details: Homo sapiens, KARPAS-299
Description: SANGER: Inhibition of human KARPAS-299 cell growth in a cell viability assay.

[16] = test system: KINGS-1; format: functional, cell-based, Homo sapiens; details: Homo sapiens, KINGS-1;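 note: cell viability assay measuring suppression of KINGS-1 cell growth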
Description: SANGER: Inhibition of human KINGS-1 cell growth in a cell viability assay.

[17] = test system: KM-H2; format: functional, cell-based, Homo sapiens; details: Homo sapiens, KM-H2;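 note: growth inhibition of KM-H2 cells, read out by a cell viability assay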
Description: SANGER: Inhibition of human KM-H2 cell growth in a cell viability assay.

[18] = test system: KS-1; format: functional, cell-based; details: Homo sapiens;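 note: growth inhibition of KS-1 cells, read out with a cell viability assay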
Description: SANGER: Inhibition of human KS-1 cell growth in a cell viability assay.

[19] = test system: KURAMOCHI; format: functional, cell-based, Homo sapiens; details: Homo sapiens, KURAMOCHI;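 note: growth inhibition of KURAMOCHI cells, read out with a cell viability assay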
Description: SANGER: Inhibition of human KURAMOCHI cell growth in a cell viability assay.

[20] = test system: LB2241-RCC; format: functional, cell-based, Homo sapiens; details: Homo sapiens, LB2241-RCC;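 note: cell viability assay measuring how strongly the cultured human renal carcinoma line is prevented from growing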
Description: SANGER: Inhibition of human LB2241-RCC cell growth in a cell viability assay.

[21] = test system: LB2518-MEL; format: functional, cell-based; details: Homo sapiens;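 note: growth inhibition of human LB2518-MEL cells, measured with a cell viability assay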
Description: SANGER: Inhibition of human LB2518-MEL cell growth in a cell viability assay.

[22] = test system: LB996-RCC; format: functional, cell-based, Homo sapiens; details: Homo sapiens, LB996-RCC
Description: SANGER: Inhibition of human LB996-RCC cell growth in a cell viability assay.

[23] = test system: LNCaP-Clone-FGC; format: functional, cell-based, Homo sapiens; details: Homo sapiens, LNCaP-Clone-FGC
Description: SANGER: Inhibition of human LNCaP-Clone-FGC cell growth in a cell viability assay.

[24] = test system: MHH-PREB-1; format: functional, cell-based, Homo sapiens; details: Homo sapiens, MHH-PREB-1;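 note: cell viability assay measuring inhibition of proliferation of human MHH-PREB-1 cells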
Description: SANGER: Inhibition of human MHH-PREB-1 cell growth in a cell viability assay.

[25] = test system: MLMA; format: functional, cell-based, Homo sapiens; details: Homo sapiens, MLMA;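 note: growth inhibition of MLMA cells (human), determined through a cell viability readout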
Description: SANGER: Inhibition of human MLMA cell growth in a cell viability assay.

[26] = test system: MN-60; format: functional, cell-based, Homo sapiens; details: Homo sapiens, MN-60;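 note: growth inhibition of the MN-60 cell line, determined with a cell viability assay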
Description: SANGER: Inhibition of human MN-60 cell growth in a cell viability assay.

[27] = test system: NB13; format: functional, cell-based, Homo sapiens; details: Homo sapiens, NB13;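 note: cell viability readout measuring growth inhibition of human NB13 cells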
Description: SANGER: Inhibition of human NB13 cell growth in a cell viability assay.

[28] = test system: NCI-H1304; format: functional, cell-based, Homo sapiens; details: Homo sapiens, NCI-H1304;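 note: growth inhibition of the cancer cell line, measured in a cell viability assay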
Description: SANGER: Inhibition of human NCI-H1304 cell growth in a cell viability assay.

[29] = test system: NCI-H1581; format: functional, cell-based, Homo sapiens; details: Homo sapiens, NCI-H1581;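 note: cell growth inhibition read out by a viability assay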
Description: SANGER: Inhibition of human NCI-H1581 cell growth in a cell viability assay.

[30] = test system: NCI-H1838; format: functional, cell-based, Homo sapiens; details: Homo sapiens, NCI-H1838;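 note: growth inhibition of NCI-H1838 cells, determined with a cell viability readout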
Description: SANGER: Inhibition of human NCI-H1838 cell growth in a cell viability assay.

[31] = test system: NCI-H2126; format: functional, cell-based, Homo sapiens; details: Homo sapiens, NCI-H2126;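 note: growth inhibition of the cancer cell line, determined with a cell viability readout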
Description: SANGER: Inhibition of human NCI-H2126 cell growth in a cell viability assay.

[32] = test system: NCI-H446; format: functional, cell-based, Homo sapiens; details: Homo sapiens, NCI-H446;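 note: growth inhibition of NCI-H446 cells determined by a cell viability assay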
Description: SANGER: Inhibition of human NCI-H446 cell growth in a cell viability assay.

[33] = test system: NCI-H747; format: functional, cell-based, Homo sapiens; details: Homo sapiens, NCI-H747;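 note: growth inhibition of human NCI-H747 cells, read out by a cell viability assay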
Description: SANGER: Inhibition of human NCI-H747 cell growth in a cell viability assay.

[34] = test system: NKM-1; format: functional, cell-based, Homo sapiens; details: Homo sapiens, NKM-1;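 note: growth inhibition of NKM-1 cells, read out with a cell viability assay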
Description: SANGER: Inhibition of human NKM-1 cell growth in a cell viability assay.

[35] = test system: NMC-G1; format: functional, cell-based, Homo sapiens; details: Homo sapiens, NMC-G1;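 note: growth inhibition of the NMC-G1 cell line, measured with a cell viability read-out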
Description: SANGER: Inhibition of human NMC-G1 cell growth in a cell viability assay.

[36] = test system: NOMO-1; format: functional, cell-based, Homo sapiens; details: Homo sapiens, NOMO-1;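 note: growth inhibition of human NOMO-1 cells measured by a cell viability assay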
Description: SANGER: Inhibition of human NOMO-1 cell growth in a cell viability assay.

[37] = test system: OMC-1; format: functional, cell-based, Homo sapiens; details: Homo sapiens, OMC-1;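 note: growth inhibition of the OMC-1 cell line, measured by a cell viability assay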
Description: SANGER: Inhibition of human OMC-1 cell growth in a cell viability assay.

[38] = test system: OS-RC-2; format: functional, cell-based, Homo sapiens; details: Homo sapiens, OS-RC-2;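 note: growth inhibition of human OS-RC-2 cells, measured by a cell viability assay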
Description: SANGER: Inhibition of human OS-RC-2 cell growth in a cell viability assay.

[39] = test system: RPMI-8226; format: functional, cell-based, Homo sapiens; details: Homo sapiens, RPMI-8226
Description: SANGER: Inhibition of human RPMI-8226 cell growth in a cell viability assay.

[40] = test system: SK-LMS-1; format: functional, cell-based, Homo sapiens; details: Homo sapiens, SK-LMS-1;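 note: growth inhibition of human SK-LMS-1 cells, read out with a cell viability assay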
Description: SANGER: Inhibition of human SK-LMS-1 cell growth in a cell viability assay.

[41] = test system: SK-UT-1; format: functional, cell-based, Homo sapiens; details: Homo sapiens, SK-UT-1;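 note: growth inhibition of SK-UT-1 cells, measured by a cell viability assay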
Description: SANGER: Inhibition of human SK-UT-1 cell growth in a cell viability assay.

[42] = test system: SW982; format: functional, cell-based; details: Homo sapiens;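 note: growth inhibition of SW982 cells, read out with a cell viability assay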
Description: SANGER: Inhibition of human SW982 cell growth in a cell viability assay.

[43] = test system: TE-1; format: functional, cell-based, Homo sapiens; details: Homo sapiens, TE-1;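 note: growth inhibition of the human TE-1 cell line, read out with a cell viability assay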
Description: SANGER: Inhibition of human TE-1 cell growth in a cell viability assay.

[44] = test system: A253 cell line; format: functional, cell-based, Homo sapiens; details: Homo sapiens, A253;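 note: growth inhibition of A253 cells, read out with a cell viability assay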
Description: SANGER: Inhibition of human A253 cell growth in a cell viability assay.

[45] = test system: A3-KAW; format: functional, cell-based, Homo sapiens; details: Homo sapiens, A3-KAW;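 note: growth inhibition of human A3-KAW cells, read out with a cell viability assay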
Description: SANGER: Inhibition of human A3-KAW cell growth in a cell viability assay.

[46] = test system: ALL-PO; format: functional, cell-based, Homo sapiens; details: Homo sapiens, ALL-PO;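 note: growth inhibition of ALL-PO cells, read out by a cell viability assay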
Description: SANGER: Inhibition of human ALL-PO cell growth in a cell viability assay.

[47] = test system: AM-38; format: functional, cell-based, Homo sapiens; details: Homo sapiens, AM-38;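 note: growth inhibition of AM-38 cells of human origin, read out by a cell viability assay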
Description: SANGER: Inhibition of human AM-38 cell growth in a cell viability assay.

[48] = test system: TE-6; format: functional, cell-based, Homo sapiens; details: Homo sapiens, TE-6;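 note: growth inhibition of TE-6 cells, read out with a cell viability assay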
Description: SANGER: Inhibition of human TE-6 cell growth in a cell viability assay.

[49] = test system: TGW; format: functional, cell-based, Homo sapiens; details: Homo sapiens, TGW;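 note: growth inhibition of human TGW cells, read out with a cell viability assay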
Description: SANGER: Inhibition of human TGW cell growth in a cell viability assay.

[50] = test system: COLO-320-HSR; format: functional, cell-based, Homo sapiens; details: Homo sapiens, COLO-320-HSR;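 note: growth inhibition of COLO-320-HSR cells, determined with a cell viability assay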
Description: SANGER: Inhibition of human COLO-320-HSR cell growth in a cell viability assay.

Structure (SMILES): C/C(=C\c1csc(C)n1)[C@@H]1C[C@@H]2O[C@]2(C)CCC[C@H](C)[C@H](O)[C@@H](C)C(=O)C(C)(C)[C@@H](O)CC(=O)O1 [PATUPILONE]
- IC50 [1]: > 0.032 µM
- IC50 [2]: 0.00714 µM
- IC50 [3]: > 0.032 µM
- IC50 [4]: > 0.032 µM
- IC50 [5]: > 0.032 µM
- IC50 [6]: 1.9 nM
- IC50 [7]: 6.59 nM
- IC50 [8]: > 0.032 µM
- IC50 [9]: 0.655 nM
- IC50 [10]: 1.3 nM
- IC50 [11]: 23.3 nM
- IC50 [12]: 5 nM
- IC50 [13]: 1.04 nM
- IC50 [14]: 1.72 nM
- IC50 [15]: > 0.032 µM
- IC50 [16]: > 0.032 µM
- IC50 [17]: 9.06 nM
- IC50 [18]: 1.76 nM
- IC50 [19]: 0.00605 µM
- IC50 [20]: 5.55 nM
- IC50 [21]: 17.6 nM
- IC50 [22]: 6.03 nM
- IC50 [23]: 4.26 nM
- IC50 [24]: 7.51 nM
- IC50 [25]: 14.1 nM
- IC50 [26]: > 0.032 µM
- IC50 [27]: 0.447 nM
- IC50 [28]: 17.5 nM
- IC50 [29]: > 0.032 µM
- IC50 [30]: > 0.032 µM
- IC50 [31]: 15.6 nM
- IC50 [32]: 21.4 nM
- IC50 [33]: 2.54 nM
- IC50 [34]: 2.1 nM
- IC50 [35]: 0.00175 µM
- IC50 [36]: 0.00855 µM
- IC50 [37]: > 0.032 µM
- IC50 [38]: 1.21 nM
- IC50 [39]: 6.71 nM
- IC50 [40]: 0.646 nM
- IC50 [41]: 0.000892 µM
- IC50 [42]: 0.999 nM
- IC50 [43]: 2.02 nM
- IC50 [44]: 10.3 nM
- IC50 [45]: 6.06 nM
- IC50 [46]: 1.47 nM
- IC50 [47]: 7.56 nM
- IC50 [48]: 0.023 µM
- IC50 [49]: 13.5 nM
- IC50 [50]: 5.21 nM

Structure (SMILES): COc1ccc(-c2cc3nccn3c(Nc3ncccc3C(N)=O)n2)cc1OC
- IC50 [1]: > 8 µM
- IC50 [2]: 6.87 µM
- IC50 [3]: > 8 µM
- IC50 [4]: > 8 µM
- IC50 [5]: > 8 µM
- IC50 [6]: 1170 nM
- IC50 [7]: > 8000 nM
- IC50 [8]: 3.42 µM
- IC50 [9]: > 8000 nM
- IC50 [10]: 5020 nM
- IC50 [11]: > 8000 nM
- IC50 [12]: > 8000 nM
- IC50 [13]: 1750 nM
- IC50 [14]: 3720 nM
- IC50 [15]: > 8 µM
- IC50 [16]: > 8 µM
- IC50 [17]: > 8000 nM
- IC50 [18]: 2780 nM
- IC50 [19]: 7.41 µM
- IC50 [20]: 4930 nM
- IC50 [21]: > 8000 nM
- IC50 [22]: 1700 nM
- IC50 [23]: 2180 nM
- IC50 [24]: 2550 nM
- IC50 [25]: 993 nM
- IC50 [26]: > 8 µM
- IC50 [27]: 3240 nM
- IC50 [28]: > 8000 nM
- IC50 [29]: > 8 µM
- IC50 [30]: > 8 µM
- IC50 [31]: > 8000 nM
- IC50 [32]: 4990 nM
- IC50 [33]: > 8000 nM
- IC50 [34]: 1060 nM
- IC50 [35]: 7.55 µM
- IC50 [36]: 7.38 µM
- IC50 [37]: > 8 µM
- IC50 [38]: 1170 nM
- IC50 [39]: > 8000 nM
- IC50 [40]: > 8000 nM
- IC50 [41]: 6.24 µM
- IC50 [42]: 775 nM
- IC50 [43]: > 8000 nM
- IC50 [44]: > 8000 nM
- IC50 [45]: 740 nM
- IC50 [46]: 557 nM
- IC50 [47]: > 8000 nM
- IC50 [48]: 6.97 µM
- IC50 [49]: > 8000 nM
- IC50 [50]: 2900 nM
